Assay results: patent publication US11679111B2, “Fatty acid synthase inhibitors” (priority 2016, dated 2023)

Tests used:
TZM-bl cells = assay: Cellular toxicity / viability in the TZM-bl model
From the text: (§1) The data presented are mean values (±SD) from three independent experiments. ** Indicates p<0.0001, treatment versus DMSO-treated control (Students t-test).

[1] = Cellular toxicity / viability in the TZM-bl model; conditions: human, TZM-bl cells
From the text: as §1

[2] = 15 mg/kg IP
BT474 cells = assay: Caspase 3/7 activity assay; type: cell-based; conditions: BT474, 24 hours
Procedure: (§2) The assay was performed using a similar protocol to the one described by Fritz et al (Fritz et al., 2001). Cells were seeded at a density of 10,000 cells/well and treated with different concentrations of HS-106 or C75. After 24 hours, to each well, 50 μl of Caspase assay/lysis buffer (50 mM HEPES pH 7.5, 100 mM KCl, 5 mM EDTA, 10 mM MgC12, 10 mM CHAPS, 20% Sucrose, 10 mM DTT, 10 μM of (Z-DEVD)2-Rh110 (Santa Cruz Biotech) and complete protease inhibitor (Roche))was added. After 6 hours of incubation at 37° C., fluorescence was measured at Ex/Em: 485/535 nm.

SKBR3 cells = assay: Caspase 3/7 activity assay; type: cell-based; conditions: SKBR3, 24 hours
Procedure: as §2

in vivo = conditions: MMTV-Neu, mouse, 15 mg/kg, n=3
[3] = system: ATP binding proteins of BT474 cells lysate; assay: Elution of ATP Sepharose loaded with BT474 cells lysate; conditions: 1, 2.5, 5 and 10 mM
Procedure: FIGS. 13A-13D illustrate the characterization of purified FASN and Fasnall elution of ATP Sepharose. […] Lane 6 and 7 are 10 mM Staurosporine and 50 mM ATP, respectively, as positive controls.

SMILES: Cc1sc2ncnc(NC3CCN(Cc4ccccc4)C3)c2c1C (racemic) [HS-106, N-(1-benzylpyrrolidin-3-yI)-5,6-dimethylthieno[2,3-d]pyrimidin-4-amine]
- TZM-bl cell viability (MTT-activity) (TZM-bl cells): without significant effects on TZM-bl cell viability
- CC50 [1]: 10 µM
- time of appearance in plasma after IP injection [2]: ≤ 5 min
- caspase activity relative to MCF10A cells (BT474 cells): 10 fold
- caspase activity relative to MCF10A cells (SKBR3 cells): 2 fold
- half-life (in vivo; T1/2 tumor tissue): 65.71 ± 0.32 min
- half-life (in vivo; ip, T1/2 kidney, 15 mg/kg IP): 9.9 ± 0.01 min
- half-life (in vivo; ip, T1/2 liver, 15 mg/kg IP): 9.84 ± 0.09 min
- half-life (in vivo; ip, T1/2 plasma, 15 mg/kg IP): 9.81 ± 0.02 min
- elution of proteins from ATP Sepharose [3]: does not elute any proteins more than DMSO
